One data set has as its system phospho-STAT6. Description: IL-13 stimulated STAT6 phosphorylation in esophageal EPC2 cells (western blot). The conditions noted are these: 30 minutes post IL-13 induction. The format is cell-based, human. On the procedure:
Esophageal EPC2 cells were treated with vehicle (ddw), A1AT or SP163M. Cells were collected at time-points indicated and western blot analysis of phospho-specific STAT6 was analyzed. […] Using CRISPER/CAS9 technology, an LRP1 knockout esophageal EPC2 cell line was created.

The test system of data set [1] is NFκB. Description: NFκB reporter assay stimulated with LPS (THP1-XBlue-MD2-GD14 reporter cells, SEAP read-out). In kind it is cell-based. The conditions noted are these: peptide 50 μg/ml before LPS 5 ng/ml, overnight. On the procedure:
The reporter cells (THP1-XBlue-MD2-GD14 cells) were treated with each peptide (50 μg/ml) before being insulted with LIPS (5 ng/ml) and incubated overnight. The NFκB inducible Secreted Embryonic Alkaline Phosphatase (SEAP) was measured in the supernatant and read for absorbance.

For a further data set, the system named is phospho-ERK1/2. Description: Cell signaling analysis in PC12 cells, immunoblot of phospho-ERK1/2. In kind it is cell-based, rat. The note with it: SP163M 24 or 240 nM, NGF 0.36 nM, RAP 150 nM pretreatment 15 min. On the procedure:
Cell signaling analysis: Rat PC12 cells were purchased from ATCC (CRL-1721). PC12 cells were maintained in high glucose DMEM (Gibco, USA) containing 10% heat-inactivated FBS (Gibco, USA), 5% HyClone heat-inactivated horse serum (Cytiva, USA), penicillin (100 units/ml) and streptomycin ([…]) in 6-well plates that were pre-coated with 0.01 mg/ml type IV collagen (Sigma-Aldrich, St. Louis, MO, USA). Cells were transferred to serum-free medium (SFM) 4 h prior to adding effectors, and then treated with SP163M (2.4, 24 or 240 nM); EI-tPA (12 nM), NGF (0.36 nM), or vehicle (PBS) for 10 min. In some cases, cells were pre-incubated with the competitive antagonist of LRP1, GST-RAP (150 nM) for 15 min or electroporated using the Rat Neuron Nucleofector Amaxa Kit (Lonza Biosciences) and incubated with siRNA to silence LRP1 expression (siLRP1; M-094191-01-0010, Dharmacon) for 48 h. Control cells were transfected with non-targeting control (NTC) siRNA (NTC; D-001810-10-05, Dharmacon). Cells were rinsed with ice-cold PBS and proteins were extracted in RIPA buffer (20 mM sodium phosphate, 150 mM NaCl, pH 7.4, 1% Triton X-100, 0.5% sodium deoxycholate, 0.1% SDS) supplemented with protease and phosphatase inhibitors (Roche Diagnostics, USA). After 30 min on ice, lysates were centrifuged at 15000×g for 5 min, supernatant collected and stored at −20° C. Equal amounts of protein from cell lysates (20 μg), as determined by BCA Protein Assay (ThermoFisher Scientific, Waltham, MA, USA), were subjected to 10% SDS-PAGE and electro-transferred to nitrocellulose membranes. The membranes were blocked with 5% nonfat dried milk and then incubated with primary anti-phospho-AKT (Cell Signaling Technology, Danvers, MA, USA; cat #9271S; 1:1000), anti-phospho-ERK1/2 (Cell Signaling Technology, Danvers, MA, USA; cat #9101S; 1:1000), anti-LRP1 (Cell Signaling Technology, Danvers, MA, USA; cat #64099S; 1:1000) or anti total-ERK1/2 (Cell Signaling Technology, Danvers, MA, USA; cat #91012S; 1:1000). Immunoblots were developed using Radiance, Radiance Q, and Radiance Plus chemiluminescent substrates and imaged using a BioRad ChemiDoc Imaging System (Bio-Rad, Hercules, CA, USA).

The nature of data set [2]: Peptide stability as stated in Example 1 (no method described). In kind it is physicochemical. The note with it: stated as explanation of activity; no test described.
Data set [3] has as its system NFκB. Description: NFκB reporter assay stimulated with LPS (THP1-XBlue-MD2-GD14 reporter cells, SEAP read-out). In kind it is cell-based. The conditions noted are these: without LPS.

Here are results for 13 substances from patent US20250161419A1, “SERPIN PEPTIDES AND METHODS OF USING THE SAME” (SERPIN PHARMA, LLC, priority 2022, published 2025).

For the substance “A1AT: alpha-1 antitrypsin, the prototypical SERPIN [Peptide A1AT]”, in the data set on phospho-STAT6, the STAT6 phosphorylation entry was “STAT6 was phosphorylated in vehicle and A1AT treated cells”. For “FPKMVPQFNTELKIFPEVNIK (FPKMVPQFNTELKIFPEVNIK) [SP34, reference compound]”, in the data set on NFκB [1], the “NFκB activity (NFκB inducible SEAP in supernatant)” value (shortened to “NFκB activity”) was “neither the scrambled core control peptide nor the AAT 0-36 fragment decreased the NFκB activity”. Same read-out and setting: as for LRFNRPFLVVI [SP24], the entry is “lack of function”. Regarding “NGF: NGF-β purchased from Sigma, cell signaling control [reference compound]”, in the data set on phospho-ERK1/2, the “activation of phospho-ERK1/2 after 10 min, with or without RAP” value is given as “activated ERK1/2”.

Consider “R R R L R F N R P F L V V I R R R (RRRLRFNRPFLVVIRRR) [SP26]”, for which, in the data set with NFκB [1], the “NFκB activity” value is given as “heightened activity”. Take “RRRVKFNKPFVFLMIEQNTKRRR (RRRVKFNKPFVFLMIEQNTKRRR; SP16 peptide core sequence including the LRP1 binding site) [SP21]”: the peptide stability entry in data set [2] was “stability increased”. In addition, the “NFκB activity” value in the data set with NFκB [1] was “NFkB inhibition increased as well relative to SP16”. In the case of “R R R V K F N K P F V F L M R R R (RRRVKFNKPFVFLMRRR; SP16 peptide core sequence including the LRP1 binding site) [SP22]”, the “NFκB activity” value in the data set on NFκB [1] is listed as “NFκB activity was significantly reduced”.

As to “R R R V R F N R P F L M I I R R R (RRRVRFNRPFLMIIRRR) [SP29]”, in the data set with NFκB [1], the “NFκB activity” value is on record as “heightened activity”. With “R R R V R F N R P F L R R R (RRRVRFNRPFLRRR) [SP32]”, in the data set on NFκB [1], the “NFκB activity” value is recorded as “could not be restored with the poly arginine flanks”. On to “SIPPEVKFNKPFVFLMIEQNTKSPLFMGKVVNP (SIPPEVKFNKPFVFLMIEQNTKSPLFMGKVVNP; SP16 peptide core sequence including the LRP1 binding site; listed as Homo sapiens) [SP8, reference compound]”, for which, in the data set with NFκB [3], the “NFkB induction by the peptide itself” value is “showed NFkB inducible properties without the need for LPS”. Also, the “NFκB activity” value with NFκB [1] is “neither the scrambled core control peptide nor the AAT 0-36 fragment decreased the NFκB activity”.

In the case of V R F N R P F L (VRFNRPFL) [SP31], the “NFκB activity” value in the data set with NFκB [1] is on record as “anti-inflammatory activity of the peptide was lost”. “VKFNKPFVFLM (SP16 peptide core sequence including the LRP1 binding site; listed as Homo sapiens) [SP20]”: the peptide stability result in data set [2] is “unstable”. Besides, the “NFκB activity” value with NFκB [1] is reported as “did not have an inhibitory effect”.

VRFNRPFLMII [SP28]: the “NFκB activity” value with NFκB [1] was “lack of function”.
